Results: ChEMBL document CHEMBL1135147, “8-Methoxyquinolines as PDE4 inhibitors” (Bioorg Med Chem Lett, 2002)

Assays:
Phosphodiesterase 4 [1] = target: T1, Phosphodiesterase 4 (Homo sapiens, UniProt P27815+Q08499+Q07343+Q08493); experiment: Inhibition of Phosphodiesterase 4 from human U937 cells; assay type: cell-based; conditions: u-937
Phosphodiesterase 4 [2] = target: Phosphodiesterase 4 (Rattus norvegicus, UniProt P14270+P14646+P14644+P54748); experiment: Inhibition of rolipram binding to PDE4 in rat brain; assay type: tissue-based
[3] = target: Phosphodiesterase 3 (Homo sapiens) (UniProt Q14432+Q13370); experiment: Inhibition of human platelet Phosphodiesterase 3 at 20 uM
Phosphodiesterase 4 [4] = target: T1, Phosphodiesterase 4; experiment: Relative inhibition of PDE4 activity and rolipram binding; assay type: protein assay

| SMILES | IC50 (Phosphodiesterase 4 [1]) [nM] | IC50 (Phosphodiesterase 4 [2]) [nM] | inhibition [3] [%] | Ratio (Phosphodiesterase 4 [4]) |
| --- | --- | --- | --- | --- |
| COc1ccc(C(=O)Nc2c(Cl)cncc2Cl)c2ccc(C(C)=O)nc12 | 440 | 1500 | 27 | 0.29 |
| CCc1cnc2c(OC)ccc(C(=O)Nc3c(Cl)cncc3Cl)c2c1 | 210 | 160 | 12 | 1.31 |
| COc1ccc(C(=O)Nc2c(Cl)cncc2Cl)c2cccnc12 |  |  | 10 |  |
| CON=C(C)c1ccc2c(C(=O)Nc3c(Cl)cncc3Cl)ccc(OC)c2n1 | 210 | 140 | 22 | 1.5 |
| COc1ccc(C(=O)Nc2c(Cl)cncc2Cl)c2ccc(C(F)(F)F)nc12 | 51 | 77 | 15 | 0.66 |
| COc1ccc(C(=O)Nc2c(Cl)cncc2Cl)c2ccc(C(C)O)nc12 (stereo not drawn) | 180 | 790 | 30 | 0.22 |
| COc1ccc(C(=O)Nc2c(Cl)cncc2Cl)c2ccc(C)nc12 | 88 | 74 | 21 | 1.19 |
| COc1ccc(C(=O)Nc2c(Cl)cncc2Cl)c2ccc(C#N)nc12 | 700 | 43 | 38 | 16.3 |
| CCc1ccc2c(C(=O)Nc3c(Cl)cncc3Cl)ccc(OC)c2n1 | 43 | 75.3 | 35 | 0.57 |
